From BindingDB's records for doi:10.1021/jm050559f (Wyeth Research, 2005)

Columns and labels:
[1] = target: T1, Vascular endothelial growth factor receptor 2 (Homo sapiens, UniProt P35968); assay: Inhibition of poly(Glu4-Tyr)peptide phosphorylation by recombinant VEGFR2 at 10 uM ATP and in presence of 5% mouse plasma
[2] = target: T1, Vascular endothelial growth factor receptor 2; assay: Inhibition of poly(Glu4-Tyr)peptide phosphorylation by recombinant VEGFR2 at 10 uM ATP and in presence of 100 uM glutathione
[3] = target: T1, Vascular endothelial growth factor receptor 2; assay: Inhibition of poly(Glu4-Tyr)peptide phosphorylation by recombinant VEGFR2 at 10 uM ATP

Measured: IC50

T1 sequence (P35968 whole entry): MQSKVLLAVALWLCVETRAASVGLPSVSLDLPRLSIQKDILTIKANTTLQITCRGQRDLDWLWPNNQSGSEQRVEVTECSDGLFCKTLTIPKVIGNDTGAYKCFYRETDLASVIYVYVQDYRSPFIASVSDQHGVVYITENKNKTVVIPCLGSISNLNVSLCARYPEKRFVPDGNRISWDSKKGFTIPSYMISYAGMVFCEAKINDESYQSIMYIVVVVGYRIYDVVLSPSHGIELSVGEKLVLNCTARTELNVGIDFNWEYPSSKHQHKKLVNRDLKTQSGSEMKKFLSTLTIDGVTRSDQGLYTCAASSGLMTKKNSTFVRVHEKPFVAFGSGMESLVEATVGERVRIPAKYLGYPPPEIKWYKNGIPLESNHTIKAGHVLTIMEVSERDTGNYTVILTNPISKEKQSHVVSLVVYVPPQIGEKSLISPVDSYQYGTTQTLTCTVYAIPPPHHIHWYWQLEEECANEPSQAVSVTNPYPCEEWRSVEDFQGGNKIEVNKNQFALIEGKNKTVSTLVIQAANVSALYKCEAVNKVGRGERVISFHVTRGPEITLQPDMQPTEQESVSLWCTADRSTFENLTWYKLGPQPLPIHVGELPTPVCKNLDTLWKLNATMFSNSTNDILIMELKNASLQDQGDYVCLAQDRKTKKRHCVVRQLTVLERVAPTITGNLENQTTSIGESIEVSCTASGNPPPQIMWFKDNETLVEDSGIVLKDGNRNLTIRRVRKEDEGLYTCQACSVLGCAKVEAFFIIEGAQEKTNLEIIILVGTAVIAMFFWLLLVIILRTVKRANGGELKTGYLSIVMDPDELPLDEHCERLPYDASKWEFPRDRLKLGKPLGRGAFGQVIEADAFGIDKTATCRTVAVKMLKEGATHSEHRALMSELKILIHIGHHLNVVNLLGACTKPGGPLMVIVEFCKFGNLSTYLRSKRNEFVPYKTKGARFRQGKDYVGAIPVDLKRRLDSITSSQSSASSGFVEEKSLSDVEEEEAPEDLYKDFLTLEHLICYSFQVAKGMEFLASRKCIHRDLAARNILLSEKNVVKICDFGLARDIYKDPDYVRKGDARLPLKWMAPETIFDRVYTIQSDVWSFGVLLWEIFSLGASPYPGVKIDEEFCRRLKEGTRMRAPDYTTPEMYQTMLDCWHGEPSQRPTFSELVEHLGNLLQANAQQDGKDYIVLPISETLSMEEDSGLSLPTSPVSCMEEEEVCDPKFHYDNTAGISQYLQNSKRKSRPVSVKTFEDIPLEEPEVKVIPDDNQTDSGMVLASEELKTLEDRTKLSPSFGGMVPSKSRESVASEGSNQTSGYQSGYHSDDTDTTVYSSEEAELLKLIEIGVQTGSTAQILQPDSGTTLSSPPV

COCCOc1cc2ncnc(N=C3C(=O)C(OC)=CC(=O)C3Sc3ccccn3)c2cc1OC (stereo not drawn) [5-methoxy-3-{[6-methoxy-7-(2-methoxyethoxy)quinazolin-4-yl]amino}-2-(pyridin-2-ylthio)benzo-1,4-quinone]
> 1000 nM: all assays above
